{"source": "paper PMC8165439", "about": "“Chymase Dependent Pathway of Angiotensin II Generation and Rapeseed Derived Peptides for Antihypertensive Treatment of Spontaneously Hypertensive Rats” (Frontiers in Pharmacology, 2021)", "key": {"[1]": {"test_system": "spontaneously hypertensive rats (SHR)", "test": "Glomerulosclerosis index (GSI) after chronic treatment", "type": "in vivo, rat", "conditions": "after 14 days daily iv CH 2, RIY 7.5, VWIS 12.5 mg/kg/day, mean ± SEM, n = 5", "procedure": "(§1) After the chronic experiment rats were anesthetized with sodium thiopental (100 mg/kg, ip, Sandoz GmbH, Kundl, Austria) and the heart, kidney and tibia were harvested for morphologic analysis. Additionally, left ventricular hypertrophy was assessed: the hearts were immediately harvested, dried with filter paper, and weighed. Then the left ventricle (LV) was carefully excised and weighed again. Left ventricular hypertrophy was assessed based on the ratio of LV mass to tibia length (LV/tibia).\nThe kidneys were fixed in 4% buffered formalin, embedded in paraffin and stained with hematoxylin/eosin for morphology evaluation. Glomerulosclerosis/hyalinosis index (GSI) was defined as segmental solidification of the glomerular capillary tuft, segmental collapse, obliteration of capillary lumen and accumulation of hyaline. Fifty glomeruli per section were randomly selected and evaluated using semi-quantitative scoring method as described in detail previously ([Maric et al., 2004]; [Gawrys et al., 2018]). Blind group allocation of the investigators was used."}, "[2]": {"test_system": "spontaneously hypertensive rats (SHR)", "test": "Left ventricular hypertrophy (LV/tibia) after chronic treatment", "type": "in vivo, rat", "conditions": "after 14 days daily iv CH 2, RIY 7.5, VWIS 12.5 mg/kg/day, mean ± SEM, n = 5", "procedure": "as §1"}, "[3]": {"test_system": "spontaneously hypertensive rats (SHR)", "test": "Metabolic parameters in metabolic cages during chronic treatment", "type": "in vivo, rat", "conditions": "mean ± SEM", "procedure": "Systolic and diastolic blood pressure (SBP and DBP, respectively) and heart rate (HR) were measured in conscious unrestrained rats by telemetry technique, once a week for 24 h. 24 hour observations in metabolic cages (Tecniplast S. p.A. Buguggiate, Italy) were performed weekly. The diuresis, weight of feces, food and water intake were measured; urine and blood samples were collected on day 0, 7th and 14th, and were centrifuged at 1200 g (blood for 15 min and urine for 5 min), then the samples were stored at –80°C until analysis.\nOn day 0 all animals received saline (0.9% NaCl) and then, for 14 consecutive days, the substance tested. Chymostatin (CH, 2 mg/kg/day) was dissolved in DMSO and then diluted with PBS (final concentration of DMSO was 0.15%). Peptides RIY (7.5 mg/kg/day) and VWIS (12.5 mg/kg/day) were dissolved in saline (0.9% NaCl, S). The substances were administered through the femoral vein during 10 min in the volume of 0.5 ml to young SHR (infusion rate: 3 ml/h) and 1 ml to adult rats (infusion rate: 6 ml/h). Control rats received solvents (either DMSO or saline) in the same volume.\nUrine volume was determined by gravimetric method. Sodium and potassium concentration in urine and plasma were measured by flame photometry (PFP7/C, Jenway Ltd, Stone, United Kingdom). Urine and plasma osmolality were measured by freezing point depression (Osmomat® 030 M, Gonotec, Berlin, Germany). These parameters were used to determine the excretion rates of total solutes (UosmV), sodium (UNaV) and potassium (UKV). Commercially available ELISA kits were used to measure nitric oxide metabolites (NOx, SunRed, Shanghai) and albumin (Albumin, ICL, Portland) concentration in urine. Excretion rate of NOx (UNOxV) and albumin (UAE) were calculated."}, "ACE": {"test_system": "ACE", "conditions": "ref Petrie et al., 2001; cited from earlier work"}, "[4]": {"conditions": "adult SHR (SHR-16), day 0 (baseline)"}, "[5]": {"conditions": "adult SHR (SHR-16), day 7 of daily iv treatment"}, "[6]": {"conditions": "adult SHR (SHR-16), day 14 of daily iv treatment"}, "[7]": {"conditions": "young SHR (SHR-6), day 0 (baseline)"}, "[8]": {"conditions": "young SHR (SHR-6), day 7 of daily iv treatment"}, "[9]": {"conditions": "young SHR (SHR-6), day 14 of daily iv treatment"}}}
{"smiles": "CC(C)C[C@H](NC(=O)[C@@H](NC(=O)N[C@@H](Cc1ccccc1)C(=O)O)[C@@H]1CCN=C(N)N1)C(=O)N[C@H](C=O)Cc1ccccc1", "note": "[CH, chymostatin]", "values": [{"measurement": "glomerulosclerosis index (GSI)", "setting": "[1]; adult SHR", "result": "0.50 ± 0.07"}, {"measurement": "glomerulosclerosis index (GSI)", "setting": "[1]; young SHR", "result": "0.51 ± 0.07"}, {"measurement": "left ventricular hypertrophy (LV/tibia)", "setting": "[2]; adult SHR", "result": "20.7 ± 2.6", "unit": "mg/mm"}, {"measurement": "left ventricular hypertrophy (LV/tibia)", "setting": "[2]; young SHR", "result": "16.7 ± 0.9", "unit": "mg/mm"}, {"measurement": "Body weight", "setting": "[3]; adult SHR (SHR-16), day 0 (baseline), CH n=8, RIY n=5-6, VWIS n=5-6", "result": "271 ± 16", "unit": "g"}, {"measurement": "Diuresis", "setting": "[3]; [4]", "result": "6.9 ± 1.9", "unit": "µL/min"}, {"measurement": "Faeces", "setting": "[3]; [4]", "result": "9±1", "unit": "g/24 h"}, {"measurement": "Food intake", "setting": "[3]; [4]", "result": "21±1", "unit": "g/24 h"}, {"measurement": "Water intake", "setting": "[3]; [4]", "result": "29±3", "unit": "g/24 h"}, {"measurement": "Body weight", "setting": "[3]; adult SHR (SHR-16), day 7 of daily iv CH 2, RIY 7.5, VWIS 12.5 mg/kg/day", "result": "285 ± 17", "unit": "g"}, {"measurement": "Diuresis", "setting": "[3]; [5]", "result": "7.4 ± 2.1", "unit": "µL/min"}, {"measurement": "Faeces", "setting": "[3]; [5]", "result": "8±1", "unit": "g/24 h"}, {"measurement": "Food intake", "setting": "[3]; [5]", "result": "17±1", "unit": "g/24 h"}, {"measurement": "Water intake", "setting": "[3]; [5]", "result": "29±3", "unit": "g/24 h"}, {"measurement": "Body weight", "setting": "[3]; adult SHR (SHR-16), day 14 of daily iv CH 2, RIY 7.5, VWIS 12.5 mg/kg/day", "result": "298 ± 19", "unit": "g"}, {"measurement": "Diuresis", "setting": "[3]; [6]", "result": "8.1 ± 2.9", "unit": "µL/min"}, {"measurement": "Faeces", "setting": "[3]; [6]", "result": "9±1", "unit": "g/24 h"}, {"measurement": "Food intake", "setting": "[3]; [6]", "result": "20±2", "unit": "g/24 h"}, {"measurement": "Water intake", "setting": "[3]; [6]", "result": "29±4", "unit": "g/24 h"}, {"measurement": "Body weight", "setting": "[3]; young SHR (SHR-6), day 0 (baseline), CH n=8-10, RIY n=5, VWIS n=5-6", "result": "131 ± 10", "unit": "g"}, {"measurement": "Diuresis", "setting": "[3]; [7]", "result": "6.1 ± 0.5", "unit": "µL/min"}, {"measurement": "Faeces", "setting": "[3]; [7]", "result": "7±1", "unit": "g/24 h"}, {"measurement": "Food intake", "setting": "[3]; [7]", "result": "15±1", "unit": "g/24 h"}, {"measurement": "Water intake", "setting": "[3]; [7]", "result": "23±2", "unit": "g/24 h"}, {"measurement": "Body weight", "setting": "[3]; young SHR (SHR-6), day 7 of daily iv CH 2, RIY 7.5, VWIS 12.5 mg/kg/day", "result": "159 ± 5", "unit": "g"}, {"measurement": "Diuresis", "setting": "[3]; [8]", "result": "9.9 ± 1.4", "unit": "µL/min"}, {"measurement": "Faeces", "setting": "[3]; [8]", "result": "11±1", "unit": "g/24 h"}, {"measurement": "Food intake", "setting": "[3]; [8]", "result": "18±2", "unit": "g/24 h"}, {"measurement": "Water intake", "setting": "[3]; [8]", "result": "29±5", "unit": "g/24 h"}, {"measurement": "Body weight", "setting": "[3]; young SHR (SHR-6), day 14 of daily iv CH 2, RIY 7.5, VWIS 12.5 mg/kg/day", "result": "196 ± 4", "unit": "g"}, {"measurement": "Diuresis", "setting": "[3]; [9]", "result": "10.0 ± 0.9", "unit": "µL/min"}, {"measurement": "Faeces", "setting": "[3]; [9]", "result": "12±1", "unit": "g/24 h"}, {"measurement": "Food intake", "setting": "[3]; [9]", "result": "20±2", "unit": "g/24 h"}, {"measurement": "Water intake", "setting": "[3]; [9]", "result": "32±3", "unit": "g/24 h"}, {"measurement": "block of ACE by chymostatin", "setting": "ACE", "result": "does not block ACE"}]}
